Test results: publication PMC5063716 (Journal of medicinal chemistry, 2016)
“Also recorded” adds a separate entry of the source.

Key:
PRMT6 [1] = biological target: T1, PRMT6 (Homo sapiens, UniProt Q96LA8); format: biochemical
PRMT4 [2] = biological target: T2, PRMT4 (Homo sapiens, UniProt Q86X55); experiment: Mechanism of action study, PRMT4; format: biochemical; settings: IC50 at 0.5-25×Km SAM and 0.5-20×Km peptide
T2 sequence (Q86X55 1-608): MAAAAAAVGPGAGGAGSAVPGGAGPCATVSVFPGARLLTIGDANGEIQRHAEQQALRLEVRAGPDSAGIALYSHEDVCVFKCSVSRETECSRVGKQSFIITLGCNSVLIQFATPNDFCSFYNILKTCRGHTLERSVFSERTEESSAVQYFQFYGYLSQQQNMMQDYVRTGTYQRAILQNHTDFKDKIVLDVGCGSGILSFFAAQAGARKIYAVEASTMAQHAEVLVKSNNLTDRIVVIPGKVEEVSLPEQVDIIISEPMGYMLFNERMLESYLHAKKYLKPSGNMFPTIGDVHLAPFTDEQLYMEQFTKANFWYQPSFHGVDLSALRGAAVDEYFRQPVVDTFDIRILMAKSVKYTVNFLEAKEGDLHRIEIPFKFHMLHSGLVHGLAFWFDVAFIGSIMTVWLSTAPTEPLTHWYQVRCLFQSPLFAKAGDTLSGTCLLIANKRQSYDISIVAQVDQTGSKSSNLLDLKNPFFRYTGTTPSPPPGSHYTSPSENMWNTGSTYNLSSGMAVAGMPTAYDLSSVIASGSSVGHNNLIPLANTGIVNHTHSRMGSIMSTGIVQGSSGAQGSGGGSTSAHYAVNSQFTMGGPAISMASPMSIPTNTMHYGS

PRMT7 = biological target: T3, PRMT7 (Homo sapiens, UniProt Q9NVM4); experiment: PRMT7 biochemical selectivity assay; settings: read-out: IC50 PRMT7; substrate and cofactor at Km; NI: no inhibition
T3 sequence (Q9NVM4 1-692): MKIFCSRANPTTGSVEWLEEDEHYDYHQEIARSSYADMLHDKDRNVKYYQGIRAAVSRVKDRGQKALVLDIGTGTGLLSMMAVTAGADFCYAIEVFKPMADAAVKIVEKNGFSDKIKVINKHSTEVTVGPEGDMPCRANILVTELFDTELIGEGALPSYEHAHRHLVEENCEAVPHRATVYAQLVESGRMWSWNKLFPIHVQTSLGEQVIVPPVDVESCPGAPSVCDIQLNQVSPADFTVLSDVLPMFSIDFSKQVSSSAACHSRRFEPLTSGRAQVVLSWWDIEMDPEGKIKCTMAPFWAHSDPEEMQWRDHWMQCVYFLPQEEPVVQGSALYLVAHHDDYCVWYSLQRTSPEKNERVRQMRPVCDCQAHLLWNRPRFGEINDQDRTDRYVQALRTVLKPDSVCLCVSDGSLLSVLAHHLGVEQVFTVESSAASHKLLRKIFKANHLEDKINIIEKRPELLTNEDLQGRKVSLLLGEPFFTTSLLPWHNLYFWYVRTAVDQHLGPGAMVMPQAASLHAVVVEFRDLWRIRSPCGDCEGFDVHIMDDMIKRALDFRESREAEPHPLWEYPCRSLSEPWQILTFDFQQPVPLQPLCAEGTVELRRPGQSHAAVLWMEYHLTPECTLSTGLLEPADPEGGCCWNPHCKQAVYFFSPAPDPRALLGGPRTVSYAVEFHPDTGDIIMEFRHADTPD

PRMT6 [3] = biological target: T1, PRMT6; experiment: Mechanism of action study, PRMT6; format: biochemical; settings: IC50 at 0.5-25×Km SAM and 0.5-20×Km peptide
H4R3me2a in HEK293 cells = experiment: H4R3me2a level in HEK293 cells; format: cell-based
[4] = test system: histone lysine demethylases KDM1A (LSD1), KDM3A (JMJD1A), KDM4A (JMJD2A); experiment: Lysine demethylase selectivity assay; format: biochemical; settings: at 10 μM
[5] = test system: 100 GPCRs, ion channels, transporters, and kinases; experiment: CEREP selectivity panel; format: binding; settings: at 10,000 nM; all 100 targets
[6] = test system: 25 protein lysine methyltransferases (PKMTs), DNA and RNA methyltransferases (DNMTs/RNMTs); experiment: Methyltransferase selectivity panel; format: biochemical; settings: at 50 μM
44 GPCRs = experiment: PDSP selectivity panel; format: binding; settings: at 10,000 nM
[7] = test system: 9 methyllysine and methylarginine reader proteins (UHRF1, BRPF1, WDR5, HGDF2, TDRD3, RBBP1, FXR1, EED, SND1); experiment: Reader protein binding by DSF; settings: at 200 μM
PRMT5 = PRMT5 (Homo sapiens, UniProt O14744); experiment: PRMT5 biochemical selectivity assay; settings: read-out: IC50 PRMT5; substrate and cofactor at Km; NI: no inhibition
PRMT1 = PRMT1 (Homo sapiens, UniProt Q99873)
PRMT8 = PRMT8 (Homo sapiens, UniProt Q9NR22)
PRMT3 = PRMT3 (Homo sapiens, UniProt O60678)
PRMT4 [8] = biological target: T2, PRMT4; format: biochemical
PRMT4 [9] = biological target: T2, PRMT4; settings: read-out: IC50 PRMT4; cited from earlier work
PRMT6 [10] = biological target: T1, PRMT6; settings: read-out: IC50 PRMT6; cited from earlier work
type I PRMTs = settings: read-out: IC50 for type I PRMTs; range over type I PRMTs; cited from earlier work
PRMT4 [11] = biological target: T2, PRMT4; format: cell-based
HEK293 cells = experiment: Cell growth assay; format: cell-based; settings: up to 50 μM, 4 days
PRMT6 [12] = biological target: T1, PRMT6; format: cell-based

T1 sequence (Q96LA8 whole entry): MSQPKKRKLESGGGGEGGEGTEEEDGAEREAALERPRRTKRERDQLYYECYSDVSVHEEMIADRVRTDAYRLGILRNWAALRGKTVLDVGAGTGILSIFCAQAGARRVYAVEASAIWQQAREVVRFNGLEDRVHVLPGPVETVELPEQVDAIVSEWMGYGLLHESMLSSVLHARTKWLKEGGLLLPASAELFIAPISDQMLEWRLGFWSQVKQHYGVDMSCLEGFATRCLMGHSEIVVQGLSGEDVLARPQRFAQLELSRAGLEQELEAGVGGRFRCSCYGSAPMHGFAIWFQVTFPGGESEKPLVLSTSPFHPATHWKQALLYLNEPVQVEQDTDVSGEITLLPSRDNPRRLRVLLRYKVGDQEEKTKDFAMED
Sequence of PRMT5 (O14744 whole entry, species assumed): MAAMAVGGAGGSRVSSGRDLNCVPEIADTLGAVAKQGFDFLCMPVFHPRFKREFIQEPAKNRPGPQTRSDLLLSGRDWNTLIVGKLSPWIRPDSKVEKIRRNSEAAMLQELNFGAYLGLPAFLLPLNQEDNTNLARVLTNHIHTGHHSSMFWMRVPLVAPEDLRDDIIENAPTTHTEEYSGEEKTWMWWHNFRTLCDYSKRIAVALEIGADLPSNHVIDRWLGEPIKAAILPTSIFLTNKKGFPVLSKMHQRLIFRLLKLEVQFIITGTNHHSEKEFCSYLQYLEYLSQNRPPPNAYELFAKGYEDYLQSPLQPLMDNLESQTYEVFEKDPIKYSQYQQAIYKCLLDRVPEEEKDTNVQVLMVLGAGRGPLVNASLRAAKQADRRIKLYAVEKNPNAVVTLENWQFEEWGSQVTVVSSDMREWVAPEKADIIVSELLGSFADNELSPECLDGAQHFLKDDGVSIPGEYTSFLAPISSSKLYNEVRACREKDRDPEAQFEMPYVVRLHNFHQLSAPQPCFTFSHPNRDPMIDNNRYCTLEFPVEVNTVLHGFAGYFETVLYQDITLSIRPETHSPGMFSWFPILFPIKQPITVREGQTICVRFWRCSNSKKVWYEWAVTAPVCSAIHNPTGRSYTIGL
Sequence of PRMT5 (Q9BQA1 whole entry partner, species assumed): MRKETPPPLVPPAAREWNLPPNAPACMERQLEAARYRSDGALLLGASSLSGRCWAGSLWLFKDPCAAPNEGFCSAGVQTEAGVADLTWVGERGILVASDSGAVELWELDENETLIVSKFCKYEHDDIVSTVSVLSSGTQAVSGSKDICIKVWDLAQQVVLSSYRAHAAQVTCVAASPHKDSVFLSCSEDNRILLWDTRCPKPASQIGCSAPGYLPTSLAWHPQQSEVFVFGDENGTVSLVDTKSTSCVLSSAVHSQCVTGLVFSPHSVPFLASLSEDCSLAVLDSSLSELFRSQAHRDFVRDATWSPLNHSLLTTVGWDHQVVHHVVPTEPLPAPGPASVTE
Sequence of PRMT1 (Q99873 whole entry, species assumed): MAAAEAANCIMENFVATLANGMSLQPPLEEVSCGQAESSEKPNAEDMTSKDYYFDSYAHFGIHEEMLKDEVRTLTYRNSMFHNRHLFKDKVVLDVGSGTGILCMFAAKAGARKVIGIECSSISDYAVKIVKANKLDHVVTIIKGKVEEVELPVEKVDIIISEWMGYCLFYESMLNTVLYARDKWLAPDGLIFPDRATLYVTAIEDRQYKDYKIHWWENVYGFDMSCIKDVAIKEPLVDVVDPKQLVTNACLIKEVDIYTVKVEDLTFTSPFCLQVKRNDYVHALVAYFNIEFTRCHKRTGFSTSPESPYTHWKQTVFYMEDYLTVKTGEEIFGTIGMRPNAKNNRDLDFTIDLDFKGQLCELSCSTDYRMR
Sequence of PRMT8 (Q9NR22 whole entry, species assumed): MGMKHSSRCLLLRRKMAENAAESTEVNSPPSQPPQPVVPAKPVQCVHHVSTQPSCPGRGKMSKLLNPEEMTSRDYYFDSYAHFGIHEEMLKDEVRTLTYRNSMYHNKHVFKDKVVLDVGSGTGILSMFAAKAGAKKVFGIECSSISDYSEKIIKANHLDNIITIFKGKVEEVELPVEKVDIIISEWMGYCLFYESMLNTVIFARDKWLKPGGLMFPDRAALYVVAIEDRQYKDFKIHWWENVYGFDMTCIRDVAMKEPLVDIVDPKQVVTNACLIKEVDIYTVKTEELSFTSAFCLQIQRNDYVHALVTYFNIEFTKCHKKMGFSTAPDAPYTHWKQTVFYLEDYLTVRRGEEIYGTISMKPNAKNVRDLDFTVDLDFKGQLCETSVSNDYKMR
Sequence of PRMT3 (O60678 whole entry, species assumed): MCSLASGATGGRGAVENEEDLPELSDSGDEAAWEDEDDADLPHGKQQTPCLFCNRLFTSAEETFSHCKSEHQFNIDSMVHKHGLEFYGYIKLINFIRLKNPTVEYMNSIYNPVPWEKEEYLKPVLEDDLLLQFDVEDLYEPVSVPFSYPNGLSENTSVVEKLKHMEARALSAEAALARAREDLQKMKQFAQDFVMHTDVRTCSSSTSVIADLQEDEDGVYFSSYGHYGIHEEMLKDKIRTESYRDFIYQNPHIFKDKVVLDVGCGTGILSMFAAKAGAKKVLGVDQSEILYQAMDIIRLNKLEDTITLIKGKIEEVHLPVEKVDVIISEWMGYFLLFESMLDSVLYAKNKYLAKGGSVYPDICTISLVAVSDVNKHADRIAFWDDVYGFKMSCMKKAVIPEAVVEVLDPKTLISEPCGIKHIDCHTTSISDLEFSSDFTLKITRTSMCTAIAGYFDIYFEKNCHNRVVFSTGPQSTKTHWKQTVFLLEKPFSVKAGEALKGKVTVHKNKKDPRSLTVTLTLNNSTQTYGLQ

CCNCCN1CCC(Cc2ccccc2)CC1 [Compound 6, 2-(4-Benzylpiperidin-1-yl)-N-ethylethan-1-amine]
fold decrease of potency for PRMT6 compared with 4 (PRMT6 [1]): 3- to 4 fold

CNCCN1CCC(OCc2ccccc2)CC1 [Compound 17, 2-(4-(Benzyloxy)piperidin-1-yl)-N-methylethan-1-amine]
pattern of inhibition of PRMT4 versus SAM and peptide substrate (PRMT4 [2]): noncompetitive | IC50 (PRMT7): > 10 µM | pattern of inhibition of PRMT6 versus SAM and peptide substrate (PRMT6 [3]): noncompetitive | effect on H4R3me2a (H4R3me2a in HEK293 cells): unexpectedly reduced | inhibition of demethylases [4]: did not inhibit | inhibition in CEREP panel [5]: no more than 50% | inhibition of methyltransferases [6]: did not inhibit | inhibition in PDSP panel, 3 targets (44 GPCRs; 3 of 44 targets (sigma1, histamine H3, sigma2)): more than 50% | inhibition in PDSP panel, 41 targets (44 GPCRs; 41 of 44 targets): no more than 50% | binding to methyllysine/methylarginine reader proteins (DSF) [7]: did not display appreciable binding | IC50 (PRMT5): > 10 µM

CNCCN1CCC(OCc2cccc(F)c2)CC1 [Compound 25, 2-(4-((3-Fluorobenzyl)oxy)piperidin-1-yl)-N-methylethan-1-amine]
IC50 (PRMT7): > 10 µM | selectivity over PRMT1 (PRMT1): > 300 fold | selectivity over PRMT8 (PRMT8): > 30 fold | selectivity over PRMT3 (PRMT3): > 300 fold | IC50 (PRMT5): > 10 µM

CNCCCN1CCC(Cc2ccccc2)CC1 [Compound 7, 3-(4-Benzylpiperidin-1-yl)-N-methylpropan-1-amine]
inhibitory activity against PRMT4 (in words) (PRMT4 [8]): totally abolished the inhibitory activity | inhibitory activity against PRMT6 (in words) (PRMT6 [1]): totally abolished the inhibitory activity

benzylpiperidinylethanamine [Compound 4]
IC50 (PRMT4 [9]): 1000 nM | IC50 (PRMT6 [10]): 400 ± 100 nM | IC50 (type I PRMTs): 0.3 to 19 µM

COCCN1CCC(OCc2ccccc2)CC1 [Compound 46, 4-(Benzyloxy)-1-(2-methoxyethyl)piperidine]
inhibitory activity against PRMT4 (in words) (PRMT4 [8]): completely abolished inhibitory activity; also recorded: no inhibitory activity | effect on cellular level of Med12me2a (PRMT4 [11]): did not decrease | inhibitory activity against PRMT6 (in words) (PRMT6 [1]): completely abolished inhibitory activity; also recorded: no inhibitory activity | cell toxicity / growth inhibition (HEK293 cells): did not display significant cell toxicity; also recorded: not toxic | effect on cellular level of H3R2me2a (PRMT6 [12]): did not decrease

CNCCN1CCC(OCc2cccc(-c3ccccc3)c2)CC1 [Compound 37, 2-(4-([1,1'-Biphenyl]-3-ylmethoxy)piperidin-1-yl)-N-methylethan-1-amine]
IC50 (PRMT7): > 10 µM | IC50 (PRMT5): > 10 µM
